Experimental data from ChEMBL document CHEMBL1201862, “PubChem BioAssay data set” (2004).
Active and inactive are the calls of the source.

What was measured:
[1] = target: T1, Microphthalmia-associated transcription factor (Homo sapiens, UniProt O75030); assay: reducers of TRPM1 reporter luminescence, concentration series – cell-based, SK-MEL-5, cherry-picked, set 3, MITF inhibitor project, dose response (AID 493073); format: functional;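 also: SK-MEL-5 melanoma cells with luciferase driven by the MITF target TRPM1 promoter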
T1 sequence (O75030 whole entry): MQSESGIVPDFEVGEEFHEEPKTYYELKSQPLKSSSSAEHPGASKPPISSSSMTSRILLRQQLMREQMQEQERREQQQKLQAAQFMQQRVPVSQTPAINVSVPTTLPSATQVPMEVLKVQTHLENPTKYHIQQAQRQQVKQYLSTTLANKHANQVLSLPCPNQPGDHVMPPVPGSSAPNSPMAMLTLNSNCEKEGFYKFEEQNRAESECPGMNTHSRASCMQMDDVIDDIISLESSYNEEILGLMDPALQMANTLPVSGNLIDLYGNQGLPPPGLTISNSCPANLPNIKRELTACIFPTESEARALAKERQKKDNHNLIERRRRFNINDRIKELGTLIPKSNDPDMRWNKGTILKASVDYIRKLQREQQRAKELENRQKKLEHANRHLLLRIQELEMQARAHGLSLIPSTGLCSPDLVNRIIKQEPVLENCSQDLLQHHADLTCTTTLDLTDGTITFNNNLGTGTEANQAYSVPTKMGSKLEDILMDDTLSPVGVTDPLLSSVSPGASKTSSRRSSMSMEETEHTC

[2] = tested on: INS1; assay: INS-1E survival protection against cytokine death – cell-based, luminescence, retest, dose response (AID 449756); format: functional; details: Rattus norvegicus;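 also: cell death triggered by IL-1 beta plus TNF-alpha plus IFN-gamma mixture; protective hits raise ATP signal compared with cytokine alone wells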
[3] = general mammalian cell viability loss – inhibitor set, cherry-pick, set 2, cytotoxicity control for miR-122 modulator project, dose response (AID 720697); format: functional, cell-based
[4] = activation of miR-122 Renilla sensor silencing – cell-based, Huh7 psiCHECK-miR122, Renilla luciferase, cherry-picked, dose response (AID 651956); format: functional;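 also: huh7 hepatoma cells stably carrying a psiCHECK-2 miR-122 sensor plasmid; renilla luciferase signal reporting endogenous miR-122 activity after 48 h compound exposure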
[5] = general mammalian cell viability loss – activator set, cherry-pick, cytotoxicity control for miR-122 modulator project, dose response (AID 720690); format: functional, cell-based;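 also: HEK293T human cells scored for general mammalian cytotoxicity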
[6] = target: Paired box protein Pax-8 (Homo sapiens, UniProt Q06710); assay: PAX8 transcriptional activity inhibition in RMG-I – RMG-I cells, luciferase, cherry-pick, dose response (AID 687027); format: functional, cell-based;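 also: luciferase reporter driven by Pax8 target thyroperoxidase promoter measured by SteadyGlo luminescence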
Chain of Paired box protein Pax-8 (Q06710 whole entry): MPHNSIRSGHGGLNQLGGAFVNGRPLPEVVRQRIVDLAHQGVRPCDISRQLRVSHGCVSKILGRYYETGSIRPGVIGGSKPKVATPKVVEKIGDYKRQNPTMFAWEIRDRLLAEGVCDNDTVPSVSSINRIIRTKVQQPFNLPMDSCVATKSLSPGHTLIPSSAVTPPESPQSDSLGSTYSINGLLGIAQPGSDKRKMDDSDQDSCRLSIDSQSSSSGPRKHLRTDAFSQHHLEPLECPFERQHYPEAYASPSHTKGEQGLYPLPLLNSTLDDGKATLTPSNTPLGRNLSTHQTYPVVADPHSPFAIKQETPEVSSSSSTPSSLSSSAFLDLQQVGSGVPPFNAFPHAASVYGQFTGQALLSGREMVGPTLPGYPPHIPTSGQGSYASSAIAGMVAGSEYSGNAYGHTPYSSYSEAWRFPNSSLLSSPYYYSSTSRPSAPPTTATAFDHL

[7] = OVCAR8 cell viability loss – plate reader, dry powder samples, PAX8 project, dose response (AID 743197); format: functional, cell-based; details: OVCAR-8
[8] = OVCAR-3 cell viability loss – plate reader, dry powder samples, PAX8 inhibitor project, dose response (AID 743044); format: functional, cell-based
[9] = IGROV1 cell killing – plate reader, dry powder samples, PAX8 inhibitor project, dose response (AID 743043); format: functional, cell-based; details: IGROV-1
[10] = target: Vasopressin V2 receptor (Homo sapiens, UniProt P30518); assay: Late-stage results from the probe development effort to identify antagonists of arginine vasopressin receptor 1a (AVPR1a): fluorescence-based cell-based dose response AVPR2 inhibition counterscreen assay.; format: functional
Chain of Vasopressin V2 receptor (P30518 whole entry): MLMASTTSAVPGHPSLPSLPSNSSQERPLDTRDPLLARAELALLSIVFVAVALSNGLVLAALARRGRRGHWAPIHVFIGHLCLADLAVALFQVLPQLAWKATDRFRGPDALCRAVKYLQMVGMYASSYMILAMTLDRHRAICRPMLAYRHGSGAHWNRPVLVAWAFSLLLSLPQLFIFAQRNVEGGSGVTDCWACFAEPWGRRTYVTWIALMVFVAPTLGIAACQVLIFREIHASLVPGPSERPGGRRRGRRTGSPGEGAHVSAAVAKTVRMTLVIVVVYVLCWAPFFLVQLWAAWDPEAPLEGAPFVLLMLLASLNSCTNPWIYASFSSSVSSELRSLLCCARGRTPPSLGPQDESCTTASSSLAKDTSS

[11] = Late-stage results from the probe development effort to identify antagonists of arginine vasopressin receptor 1a (AVPR1a): fluorescence-based cell-based dose response AVPR1a inhibition assay.; format: functional
[12] = target: Vasopressin V1b receptor (Homo sapiens, UniProt P47901); assay: Late-stage results from the probe development effort to identify antagonists of arginine vasopressin receptor 1a (AVPR1a): fluorescence-based cell-based dose response AVPR1b inhibition counterscreen assay.; format: functional
Chain of Vasopressin V1b receptor (P47901 whole entry): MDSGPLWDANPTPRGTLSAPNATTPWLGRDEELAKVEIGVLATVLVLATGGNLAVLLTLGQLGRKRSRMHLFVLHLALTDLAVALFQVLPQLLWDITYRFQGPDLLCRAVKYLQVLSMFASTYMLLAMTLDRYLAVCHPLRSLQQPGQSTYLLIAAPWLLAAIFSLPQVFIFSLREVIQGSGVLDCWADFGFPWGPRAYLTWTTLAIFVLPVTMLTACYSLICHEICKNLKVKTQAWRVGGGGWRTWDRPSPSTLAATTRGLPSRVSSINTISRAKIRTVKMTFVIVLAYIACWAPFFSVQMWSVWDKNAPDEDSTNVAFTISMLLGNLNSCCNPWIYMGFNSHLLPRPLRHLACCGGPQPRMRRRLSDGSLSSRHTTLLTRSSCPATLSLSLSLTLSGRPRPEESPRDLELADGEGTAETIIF

[13] = Late-stage results from the probe development effort to identify antagonists of arginine vasopressin receptor 1a (AVPR1a): fluorescence-based cell-based dose response OXTR inhibition counterscreen assay.; format: functional
[14] = cytotoxicity in MITF-independent A375 cells – cell-based, CellTiter-Glo luminescence, dry powder, set 4, counter-screen for MITF inhibitor project, dose response (AID 624364); format: functional; details: A-375;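 also: A375 melanoma cells are MITF independent so this is a counter screen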
[15] = viability loss in MITF-independent A375 cells – cell-based, CellTiter-Glo luminescence, dry powder, set 2, counter-screen for MITF inhibitor project, dose response (AID 624489); format: functional; details: A-375;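 also: actives are compounds lowering A375 viability meaning general cytotoxicity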
[16] = target: Potassium channel subfamily K member 3 (Homo sapiens, UniProt O14649); assay: inhibition of human KCNK3 channel flux – CHO cells, FluxOR thallium flux, SAR follow-up (AID 652212); format: functional
Chain of Potassium channel subfamily K member 3 (O14649 whole entry): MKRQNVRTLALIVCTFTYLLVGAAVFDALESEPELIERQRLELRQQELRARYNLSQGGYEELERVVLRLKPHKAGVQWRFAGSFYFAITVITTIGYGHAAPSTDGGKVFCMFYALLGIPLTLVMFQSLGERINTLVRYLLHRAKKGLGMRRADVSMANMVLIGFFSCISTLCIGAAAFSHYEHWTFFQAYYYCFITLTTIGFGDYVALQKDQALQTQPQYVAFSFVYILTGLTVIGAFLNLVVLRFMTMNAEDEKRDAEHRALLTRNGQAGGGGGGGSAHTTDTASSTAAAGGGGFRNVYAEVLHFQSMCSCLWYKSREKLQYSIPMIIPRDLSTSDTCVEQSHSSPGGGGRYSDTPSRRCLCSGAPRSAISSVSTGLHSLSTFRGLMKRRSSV

[17] = ATP-based viability loss in HepG2 cells – cell-based, CellTiter-Glo luminescence, dry powder, set 3, cytotoxicity control, dose response (AID 720594); format: functional
[18] = dual-tagged ARNT PAS-B bead signal quenchers – biochemical, dry powder, artefact control for ARNT/TACC3 disruptor project, dose response (AID 720564)
[19] = target: Protein disulfide-isomerase (Homo sapiens, UniProt P07237); assay: inhibition of PDI-mediated insulin reduction – biochemical, turbidity, dry powder samples, set 2, confirmation (AID 652146)
Chain of Protein disulfide-isomerase (P07237 whole entry): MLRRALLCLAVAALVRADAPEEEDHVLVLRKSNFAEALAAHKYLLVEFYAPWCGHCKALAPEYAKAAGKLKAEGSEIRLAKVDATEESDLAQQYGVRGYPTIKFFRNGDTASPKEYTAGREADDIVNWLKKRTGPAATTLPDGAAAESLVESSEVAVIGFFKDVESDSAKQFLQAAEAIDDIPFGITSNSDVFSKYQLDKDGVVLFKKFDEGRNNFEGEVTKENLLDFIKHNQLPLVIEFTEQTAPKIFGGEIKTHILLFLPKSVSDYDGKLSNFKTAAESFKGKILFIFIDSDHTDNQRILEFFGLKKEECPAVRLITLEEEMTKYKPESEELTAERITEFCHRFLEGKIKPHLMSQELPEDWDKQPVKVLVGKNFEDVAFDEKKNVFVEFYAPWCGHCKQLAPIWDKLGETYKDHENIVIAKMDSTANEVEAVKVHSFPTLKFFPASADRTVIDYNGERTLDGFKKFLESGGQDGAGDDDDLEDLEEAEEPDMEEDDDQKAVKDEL

[20] = target: Protein disulfide-isomerase A6 (Homo sapiens, UniProt Q15084); assay: Secondary Assay for Selectivity of PDI Inhibitors (against ERp5) Measured in Biochemical System Using Plate Reader - 2137-04_Inhibitor_Dose_DryPowder_Activity_Set3.
Chain of Protein disulfide-isomerase A6 (Q15084 whole entry): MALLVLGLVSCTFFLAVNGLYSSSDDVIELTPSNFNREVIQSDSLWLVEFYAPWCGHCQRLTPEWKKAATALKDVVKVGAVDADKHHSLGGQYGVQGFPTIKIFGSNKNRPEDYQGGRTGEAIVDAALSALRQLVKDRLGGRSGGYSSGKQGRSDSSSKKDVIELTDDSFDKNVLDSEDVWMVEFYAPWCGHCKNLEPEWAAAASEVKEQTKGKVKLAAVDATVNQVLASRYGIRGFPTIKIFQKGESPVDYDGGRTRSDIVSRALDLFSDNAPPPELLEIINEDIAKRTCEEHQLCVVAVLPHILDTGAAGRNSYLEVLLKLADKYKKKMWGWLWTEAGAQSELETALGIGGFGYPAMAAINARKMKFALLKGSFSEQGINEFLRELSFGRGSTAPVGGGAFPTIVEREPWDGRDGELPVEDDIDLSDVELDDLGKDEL

[21] = loss of viability in HeLa cells – cell-based, ATP luminescence, dry powder, cytotoxicity control, dose response (AID 652117); format: functional
[22] = viability loss in HEK293 kidney cells – cell-based, cherry-picks, set 5, cytotoxicity control, dose response (AID 1053117); format: functional
[23] = viability loss in HepG2 hepatoma cells – cell-based, cherry-picks, set 5, cytotoxicity control, dose response (AID 1053118); format: functional

SMILES: Oc1c(Cl)cc(Cl)cc1/C=N/Nc1ncc(Br)cn1
- AC50 [1]: 7.84 µM (active)
- AC50 [2]: 0.388 µM (active)
- AC50 [3]: 5.81 µM (active)
- AC50 [4]: 54.3 µM (active)
- AC50 [5]: 22.9 µM (active)

SMILES: Cc1ccc(-c2ccc([C@H]3[C@H](CO)N4CCCCN(S(=O)(=O)c5cccc(C)c5)C[C@@H]34)cc2)cc1
- AC50 [6]: 8.11 µM (active)
- AC50 [7]: 46 µM (active)
- AC50 [8]: 31.7 µM (active)
- AC50 [9]: 55.4 µM (active)

SMILES: Cc1cccnc1N1CCN(C(=O)N(CC2CC2)c2ccc(Cl)cc2)CC1
- IC50 [10]: > 50 µM (inactive)
- IC50 [11]: 0.0084 µM (active)
- IC50 [12]: > 50 µM (inactive)
- IC50 [13]: > 50 µM (inactive)

SMILES: O=C1C(NS(=O)(=O)c2ccc(Br)cc2)=C(N2CCSCC2)C(=O)c2ccccc21
- AC50 [14]: > 70 µM (inactive)
- AC50 [15]: > 70 µM (inactive)

SMILES: Cc1cccc(S(=O)(=O)Nc2cccc(NC(=O)c3ccccc3)c2)c1
- IC50 [16]: 1.45 µM (active)

SMILES: CC1CCN(S(=O)(=O)c2ccc(C(=O)Nc3nnc(-c4cccs4)o3)cc2)CC1
- AC50 [17]: > 52 µM (inactive)
- AC50 [18]: 116 µM (active)

SMILES: CC(C)OC(=O)C1(CCOc2ccccc2)CCN(Cc2ccc(O)c(Cl)c2)CC1
- AC50 [19]: 1 µM (active)
- AC50 [20]: 30 µM (inactive)
- AC50 [21]: 47.9 µM (active)

SMILES: N#Cc1ccc(-c2ccc3c(c2)[C@H]2[C@H](CCN2S(=O)(=O)c2cccc(F)c2)[C@@H](CO)N3)cc1
- AC50 [22]: 32.8 µM (active)
- AC50 [23]: 38.1 µM (active)
